According to ChEMBL document CHEMBL1131988, “Synthesis, SAR and in vivo activity of novel thienopyridine sulfonamide pyrrolidinones as factor Xa inhibitors” (Bioorg Med Chem Lett, 1999):

Assays:
Prothrombin = Prothrombin (Homo sapiens, UniProt P00734); assay: Binding affinity against thrombin
Coagulation factor X [1] = target: T1, Coagulation factor X (Homo sapiens, UniProt P00742); assay: Binding affinity against serine protease factor Xa (fXa)
Serine protease 1 = Serine protease 1 (Homo sapiens, UniProt P07477); assay: Binding affinity against trypsin
Coagulation factor X [2] = target: T1, Coagulation factor X; assay: Binding affinity against serine protease Coagulation factor X
Plasminogen = Plasminogen (Homo sapiens, UniProt P00747); assay: Binding affinity against plasmin
[3] = target: Vitamin K-dependent protein C (Homo sapiens, UniProt P04070); assay: Binding affinity against activated protein C (APC)
[4] = target: Tissue-type plasminogen activator (Homo sapiens, UniProt P00750); assay: Binding affinity against tissue plasminogen activator (t-Pa)
[5] = target: Coagulation factor X (Rattus norvegicus) (UniProt Q63207); assay: Inhibitory activity against factor Xa in rat plasma
Sequence of Coagulation factor X (Rattus norvegicus) (Q63207 whole entry, looked up): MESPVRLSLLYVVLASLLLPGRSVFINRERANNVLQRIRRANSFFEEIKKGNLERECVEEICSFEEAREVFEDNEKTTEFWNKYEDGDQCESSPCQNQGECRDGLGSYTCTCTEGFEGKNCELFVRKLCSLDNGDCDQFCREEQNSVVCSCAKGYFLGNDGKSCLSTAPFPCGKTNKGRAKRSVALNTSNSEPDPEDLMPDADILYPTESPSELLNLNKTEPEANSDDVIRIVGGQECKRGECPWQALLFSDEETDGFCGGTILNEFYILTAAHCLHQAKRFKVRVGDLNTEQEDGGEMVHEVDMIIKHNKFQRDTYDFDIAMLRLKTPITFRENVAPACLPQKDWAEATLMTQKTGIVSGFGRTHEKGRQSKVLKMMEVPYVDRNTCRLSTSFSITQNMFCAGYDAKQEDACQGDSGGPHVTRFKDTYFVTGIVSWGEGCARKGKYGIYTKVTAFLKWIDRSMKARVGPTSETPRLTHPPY

Sequence of Tissue-type plasminogen activator (P00750 whole entry): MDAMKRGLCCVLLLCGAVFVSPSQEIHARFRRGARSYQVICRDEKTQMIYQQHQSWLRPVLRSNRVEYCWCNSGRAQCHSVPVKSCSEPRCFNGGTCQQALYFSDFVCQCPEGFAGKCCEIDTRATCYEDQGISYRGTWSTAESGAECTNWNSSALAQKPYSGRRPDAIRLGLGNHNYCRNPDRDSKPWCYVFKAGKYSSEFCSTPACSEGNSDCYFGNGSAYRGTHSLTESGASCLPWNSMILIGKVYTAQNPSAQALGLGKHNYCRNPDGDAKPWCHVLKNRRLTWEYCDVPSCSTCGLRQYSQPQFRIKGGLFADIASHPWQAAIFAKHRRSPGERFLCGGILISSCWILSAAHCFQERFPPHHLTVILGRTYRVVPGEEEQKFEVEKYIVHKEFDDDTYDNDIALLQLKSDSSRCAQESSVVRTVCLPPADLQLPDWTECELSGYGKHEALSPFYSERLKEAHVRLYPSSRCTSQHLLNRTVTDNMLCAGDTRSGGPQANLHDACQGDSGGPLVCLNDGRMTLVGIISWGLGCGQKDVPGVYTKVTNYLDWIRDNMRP
Sequence of Plasminogen (P00747 97-580 limits assumed): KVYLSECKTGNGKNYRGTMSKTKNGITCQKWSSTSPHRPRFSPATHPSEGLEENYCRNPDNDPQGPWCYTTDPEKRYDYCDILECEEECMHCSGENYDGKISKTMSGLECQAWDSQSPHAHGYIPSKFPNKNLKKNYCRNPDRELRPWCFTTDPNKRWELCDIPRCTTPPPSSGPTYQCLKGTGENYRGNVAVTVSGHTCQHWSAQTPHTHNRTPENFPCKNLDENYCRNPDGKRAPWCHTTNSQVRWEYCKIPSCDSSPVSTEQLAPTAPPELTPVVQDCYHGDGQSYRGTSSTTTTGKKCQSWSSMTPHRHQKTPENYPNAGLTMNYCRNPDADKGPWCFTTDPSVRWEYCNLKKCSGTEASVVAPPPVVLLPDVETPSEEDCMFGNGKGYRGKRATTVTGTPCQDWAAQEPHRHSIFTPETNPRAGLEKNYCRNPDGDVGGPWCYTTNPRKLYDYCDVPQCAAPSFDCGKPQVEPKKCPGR
Sequence of Plasminogen (P00747 581-810 limits assumed): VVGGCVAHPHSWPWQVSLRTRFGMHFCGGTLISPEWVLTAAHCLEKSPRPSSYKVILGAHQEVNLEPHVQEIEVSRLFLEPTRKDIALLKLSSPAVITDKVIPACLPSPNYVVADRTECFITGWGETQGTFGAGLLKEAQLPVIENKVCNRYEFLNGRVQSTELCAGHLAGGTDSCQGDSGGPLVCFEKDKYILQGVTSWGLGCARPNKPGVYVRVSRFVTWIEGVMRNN
Sequence of Serine protease 1 (P07477 whole entry): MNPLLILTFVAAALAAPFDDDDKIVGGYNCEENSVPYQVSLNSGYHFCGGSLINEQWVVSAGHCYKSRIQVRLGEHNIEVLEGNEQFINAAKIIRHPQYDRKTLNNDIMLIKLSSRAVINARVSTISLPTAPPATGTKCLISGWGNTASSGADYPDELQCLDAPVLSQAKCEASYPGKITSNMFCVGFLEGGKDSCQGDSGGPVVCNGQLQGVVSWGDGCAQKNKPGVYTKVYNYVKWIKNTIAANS
T1 sequence (P00742 41-179 limits assumed): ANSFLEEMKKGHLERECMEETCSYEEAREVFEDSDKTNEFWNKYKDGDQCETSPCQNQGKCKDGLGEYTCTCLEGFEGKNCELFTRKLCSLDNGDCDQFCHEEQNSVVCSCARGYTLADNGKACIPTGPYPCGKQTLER
T1 sequence (P00742 235-488 limits assumed): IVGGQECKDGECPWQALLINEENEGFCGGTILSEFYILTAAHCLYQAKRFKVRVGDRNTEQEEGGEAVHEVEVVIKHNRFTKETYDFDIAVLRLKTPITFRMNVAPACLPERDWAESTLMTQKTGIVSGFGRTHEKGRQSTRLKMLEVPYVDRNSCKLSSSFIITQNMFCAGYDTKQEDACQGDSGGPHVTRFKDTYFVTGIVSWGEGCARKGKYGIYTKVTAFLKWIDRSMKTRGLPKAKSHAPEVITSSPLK
Sequence of Vitamin K-dependent protein C (P04070 43-197 limits assumed): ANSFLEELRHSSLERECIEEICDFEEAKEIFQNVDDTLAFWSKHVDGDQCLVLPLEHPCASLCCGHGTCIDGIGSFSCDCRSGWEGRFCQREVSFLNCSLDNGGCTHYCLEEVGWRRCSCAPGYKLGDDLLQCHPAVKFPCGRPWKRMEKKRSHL
Sequence of Vitamin K-dependent protein C (P04070 212-461 limits assumed): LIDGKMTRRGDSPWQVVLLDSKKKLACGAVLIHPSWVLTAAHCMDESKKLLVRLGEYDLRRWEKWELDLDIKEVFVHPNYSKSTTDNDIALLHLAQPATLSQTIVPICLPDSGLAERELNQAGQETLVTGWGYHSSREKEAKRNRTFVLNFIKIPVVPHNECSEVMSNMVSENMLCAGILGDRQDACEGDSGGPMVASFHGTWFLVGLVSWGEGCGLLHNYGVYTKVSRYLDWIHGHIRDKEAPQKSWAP

Ki (Prothrombin) [µM] | Ki (Coagulation factor X [1]) [µM] | Ki (Serine protease 1) [µM] | Ki (Coagulation factor X [2]) [µM] | Ki (Plasminogen) [µM] | Ki [3] [µM] | Ki [4] [µM] | IC50 [5] [µM] | Compound
> 4 | 0.039 | > 2.9 | – | – | – | – | – | N=C(N)c1cccc(CN2CC[C@H](NS(=O)(=O)c3cc4c(Cl)nccc4s3)C2=O)c1
> 4 | > 1.2 | > 2.9 | – | – | – | – | – | CCOc1ccc2cc(S(=O)(=O)N[C@H]3CCN(Cc4cccc(C(=N)N)c4)C3=O)ccc2n1
> 4 | – | > 2.9 | 0.51 | – | – | – | – | N=C(N)c1cccc(CN2CC[C@H](NS(=O)(=O)c3ccc4ccncc4c3)C2=O)c1
> 4 | 0.088 | 2.9 | – | – | – | – | – | N=C(N)c1cccc(CN2CC[C@H](NS(=O)(=O)c3cc4cccnc4s3)C2=O)c1
4 | 0.002 | > 2.9 | – | 4.5 | 8 | 8.7 | – | N=C(N)c1ccc(O)c(CN2CC[C@H](NS(=O)(=O)c3cc4c(Cl)nccc4s3)C2=O)c1
2.6 | 0.003 | > 2.9 | – | > 7.3 | > 18 | 8.7 | – | N=C(N)c1ccc(O)c(CN2CC[C@H](NS(=O)(=O)c3cc4cnccc4s3)C2=O)c1
– | – | – | ~0.075 | – | – | – | – | N=C(N)c1cccc(CN2CC[C@H](NS(=O)(=O)c3ccc4cc(Cl)c(Cl)cc4c3)C2=O)c1
4 | 0.0007 | 1 | – | 2.3 | 5.2 | 0.36 | – | N=C(N)c1ccc(O)c(CN2CC[C@H](NS(=O)(=O)c3cc4ncccc4s3)C2=O)c1
> 4 | – | > 2.9 | 0.12 | – | – | – | – | N=C(N)c1cccc(CN2CC[C@H](NS(=O)(=O)c3cc4ccc(Cl)nc4s3)C2=O)c1
– | – | – | 0.036 | – | – | – | – | Cc1c(S(=O)(=O)N[C@H]2CCN(Cc3cccc(C(=N)N)c3)C2=O)sc2ccc(Cl)cc12
> 4 | – | > 2.9 | 0.09 | – | – | – | – | N=C(N)c1cccc(CN2CC[C@H](NS(=O)(=O)c3ccc4c(N)nccc4c3)C2=O)c1
0.92 | 0.0015 | 1.6 | – | 3.6 | 11 | 2.7 | – | N=C(N)c1ccc(O)c(CN2CC[C@H](NS(=O)(=O)c3cc4nc(Cl)ccc4s3)C2=O)c1
1.1 | 0.003 | 1.8 | – | 1.5 | 4.2 | > 8.7 | – | N=C(N)c1ccc(N)c(CN2CC[C@H](NS(=O)(=O)c3cc4nc(Cl)ccc4s3)C2=O)c1
> 4 | 0.11 | > 2.9 | – | – | – | – | – | N=C(N)c1cccc(CN2CC[C@H](NS(=O)(=O)c3ccc4nc(Cl)ccc4c3)C2=O)c1
> 4 | 0.026 | > 2.9 | – | > 7.3 | 12 | > 8.7 | – | N=C(N)c1cccc(CN2CC[C@H](NS(=O)(=O)c3cc4ncccc4s3)C2=O)c1
3.1 | 0.031 | > 2.9 | – | 5.8 | > 18 | > 8.7 | – | N=C(N)c1cccc(CN2CC[C@H](NS(=O)(=O)c3cc4nc(Cl)ccc4s3)C2=O)c1
> 4 | – | > 2.9 | 0.38 | – | – | – | – | N=C(N)c1cccc(CN2CC[C@H](NS(=O)(=O)c3ccc4cnccc4c3)C2=O)c1
> 4 | 0.2 | > 2.9 | – | – | – | – | – | N=C(N)c1cccc(CN2CC[C@H](NS(=O)(=O)c3ccc4ncccc4c3)C2=O)c1
2 | – | > 2.9 | 0.002 | 6.2 | 18 | > 8.7 | 0.011 | N=C(N)c1ccc(O)c(CN2CC[C@H](NS(=O)(=O)c3cc4ccncc4s3)C2=O)c1
> 4 | 0.16 | > 2.9 | – | – | – | – | – | N=C(N)c1cccc(CN2CC[C@H](NS(=O)(=O)c3ccc4nc(N)ccc4c3)C2=O)c1
> 4 | – | > 2.9 | 0.24 | – | – | – | – | N=C(N)c1cccc(CN2CC[C@H](NS(=O)(=O)c3ccc4ccc(N)nc4c3)C2=O)c1
2.6 | 0.005 | > 2.9 | – | 7.3 | 5.5 | 7.5 | – | N=C(N)c1ccc(O)c(CN2CC[C@H](NS(=O)(=O)c3cc4ccnc(Cl)c4s3)C2=O)c1
> 4 | – | > 2.9 | 0.72 | – | – | – | – | N=C(N)c1cccc(CN2CC[C@H](NS(=O)(=O)c3ccc4ccc(Cl)nc4c3)C2=O)c1
> 4 | – | > 2.9 | 0.48 | – | – | – | – | COc1ccc2ccc(S(=O)(=O)N[C@H]3CCN(Cc4cccc(C(=N)N)c4)C3=O)cc2n1
> 4 | – | > 2.9 | 0.49 | – | – | – | – | N=C(N)c1cccc(CN2CC[C@H](NS(=O)(=O)c3ccc4ccnc(N)c4c3)C2=O)c1
> 4 | – | > 2.9 | 0.42 | – | – | – | – | N=C(N)c1cccc(CN2CC[C@H](NS(=O)(=O)c3ccc4cccnc4c3)C2=O)c1
– | – | 0.305 | – | 2.35 | 1.97 | 1.07 | – | COc1ccc2ccc(S(=O)(=O)N[C@H]3CCN(Cc4cc(C(=N)N)ccc4O)C3=O)cc2c1
0.21 | 0.005 | 0.86 | – | > 7.3 | 9.5 | > 8.7 | – | COc1ccc2sc(S(=O)(=O)N[C@H]3CCN(Cc4cc(C(=N)N)ccc4N)C3=O)cc2n1
